Reference: PubChem BioAssay (NCI)
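The compound was tested at five concentrations on cells cultured in 96-well plates, with a 48-hour exposure period. TGI: total growth inhibition.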

Tests used:
Experiment in all cases: NCI-60 cell line screen, 48 h
786-0 renal = tested on: 786-0 renal
A549 NSCLC = tested on: A549 NSCLC
CAKI-1 renal = tested on: CAKI-1 renal
CCRF-CEM leukemia = tested on: CCRF-CEM leukemia
HCT-116 colon = tested on: HCT-116 colon
IGROV1 ovarian = tested on: IGROV1 ovarian
KM12 colon = tested on: KM12 colon
LOX IMVI melanoma = tested on: LOX IMVI melanoma
MDA-MB-435 = tested on: MDA-MB-435
NCI-H226 lung = tested on: NCI-H226 lung
NCI/ADR-RES ovarian = tested on: NCI/ADR-RES ovarian
OVCAR-8 ovarian = tested on: OVCAR-8 ovarian
PC-3 prostate = tested on: PC-3 prostate
SK-MEL-2 melanoma = tested on: SK-MEL-2 melanoma
SNB-19 CNS = tested on: SNB-19 CNS
SNB-75 CNS = tested on: SNB-75 CNS
SR leukemia = tested on: SR leukemia
TK-10 renal = tested on: TK-10 renal
UACC-62 melanoma = tested on: UACC-62 melanoma
SK-MEL-28 melanoma = tested on: SK-MEL-28 melanoma

| SMILES | TGI (786-0 renal) | TGI (A549 NSCLC) | TGI (CAKI-1 renal) | TGI (CCRF-CEM leukemia) | TGI (HCT-116 colon) | TGI (IGROV1 ovarian) | TGI (KM12 colon) | TGI (LOX IMVI melanoma) | TGI (MDA-MB-435) | TGI (NCI-H226 lung) | TGI (NCI/ADR-RES ovarian) | TGI (OVCAR-8 ovarian) | TGI (PC-3 prostate) | TGI (SK-MEL-2 melanoma) | TGI (SNB-19 CNS) | TGI (SNB-75 CNS) | TGI (SR leukemia) | TGI (TK-10 renal) | TGI (UACC-62 melanoma) | TGI (SK-MEL-28 melanoma) |
| --- | --- | --- | --- | --- | --- | --- | --- | --- | --- | --- | --- | --- | --- | --- | --- | --- | --- | --- | --- | --- |
| N=C(N)C1CN(CCCCCCCCCCN2CC(C(=N)N)C(=O)NC2=O)C(=O)NC1=O (centres undefined) | > 10 µM | > 10 µM | > 10 µM | > 10 µM | > 10 µM | > 10 µM | > 10 µM | > 10 µM | > 10 µM | > 10 µM | > 10 µM | > 10 µM | > 10 µM | > 10 µM | > 10 µM | > 10 µM | > 10 µM | > 10 µM | > 10 µM |  |
| CCCCCC(C/C=N/N(C)C)C(O)(C(F)(F)F)C(F)(F)F (centres undefined) | > 100 µM | > 100 µM | > 100 µM | 62.7 µM | > 100 µM | 74.5 µM | 81.6 µM | > 100 µM | > 100 µM | > 100 µM | > 100 µM | > 100 µM | > 100 µM | > 100 µM | > 100 µM | 97.4 µM | > 100 µM | > 100 µM | > 100 µM | > 100 µM |
| COC(=O)/C=C\COCC1C2CCC(=O)C21 (centres undefined) | > 25 µM | > 25 µM | 1.29 µM | 16.2 µM | > 25 µM | > 25 µM | > 25 µM | > 25 µM | > 25 µM | > 25 µM | > 25 µM | > 25 µM | > 25 µM | > 25 µM | > 25 µM | > 25 µM | > 25 µM | > 25 µM | > 25 µM | > 25 µM |
| O=C1NCC(CSc2nc3cc(C4CCCc5c4[nH]c4ccccc54)ccc3o2)N1 (centres undefined) | > 100 µM | > 100 µM | > 100 µM | > 100 µM | > 100 µM | > 100 µM | > 100 µM | > 100 µM | > 100 µM | > 100 µM | > 100 µM | 88.1 µM | > 100 µM | > 100 µM | > 100 µM | > 100 µM | > 100 µM | > 100 µM | > 100 µM | > 100 µM |
| c1cncc(C2(c3cc4ccccc4[nH]3)COCO2)c1 (centres undefined) | > 100 µM | > 100 µM | > 100 µM | 56.6 µM | > 100 µM | > 100 µM | > 100 µM | > 100 µM | > 100 µM | > 100 µM | > 100 µM | > 100 µM | > 100 µM | > 100 µM | > 100 µM | > 100 µM | > 100 µM | > 100 µM | > 100 µM | > 100 µM |
| CN(C)c1ccc(/C=C/C(=O)CC(=O)/C=C/c2ccc(N(C)C)cc2)cc1 | > 100 µM | > 100 µM | > 100 µM | > 100 µM | > 100 µM | > 100 µM | > 100 µM | > 100 µM | > 100 µM | > 100 µM | > 100 µM | > 100 µM | > 100 µM | > 100 µM | > 100 µM | > 100 µM | 76.7 µM | > 100 µM | > 100 µM | > 100 µM |
